Experimental data published in patent US6914045B2, “Glycopeptide antibiotics” (Wyeth Holdings Corporation, priority 2001, dated 2005).
Values after ≈ are worked out from the molar mass of the structure shown.

Assays:
Assay in all cases: in vitro antibacterial evaluation, MIC by broth dilution
Assay type in all cases: cell-based
Enterococcus sp. = details: broth dilution, 18 hours at 35° C.; for MIC Enterococcus faecalis (ATCC 29212): strain ATCC 29212; for MIC Enterococcus faecalis (GC 2242): strain GC 2242; for MIC Enterococcus faecium (GC 2243): strain GC 2243; for MIC Enterococcus faecalis (GC 2691): strain GC 2691; for MIC Enterococcus faecalis (GC 3059): strain GC 3059; for MIC Enterococcus faecalis (GC 4552): strain GC 4552; for MIC Enterococcus faecalis (GC 4553): strain GC 4553; for MIC Enterococcus faecalis (GC 4554): strain GC 4554; for MIC Enterococcus faecium (GC 4556): strain GC 4556; for MIC Enterococcus faecium (GC 4557): strain GC 4557; for MIC Enterococcus avium (GC 4558): strain GC 4558; for MIC Enterococcus faecalis (GC 6189): strain GC 6189
Outline: (§1)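 Read-out: the lowest concentration at which the test strain fails to grow. Serial dilutions (64-0.06 μg/mL) in Muller-Hinton II […], 5×10^5 CFU/mL inoculum, NCCLS M7-A2 procedure.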

Staphylococcus sp. = details: broth dilution, 18 hours at 35° C.; for MIC Staphylococcus aureus (ATCC 29213): strain ATCC 29213; for MIC Staphylococcus aureus (GC 1131): strain GC 1131; for MIC Staphylococcus aureus (GC 3051): strain GC 3051; for MIC Staphylococcus aureus (GC 3053): strain GC 3053; for MIC Staphylococcus aureus (GC 4541): strain GC 4541; for MIC Staphylococcus aureus (GC 4542): strain GC 4542; for MIC Staphylococcus aureus-SMITH (GC 4543): strain GC 4543; for MIC Staphylococcus aureus (GC 4544): strain GC 4544; for MIC Staphylococcus aureus (GC 4545): strain GC 4545; for MIC Staphylococcus haemolyticus (GC 4546): strain GC 4546; for MIC Coagulase Negative Staphylococcus (GC 4547): strain GC 4547; for MIC Coagulase Negative Staphylococcus (GC 4548): strain GC 4548; for MIC Coagulase Negative Staphylococcus (GC 4549): strain GC 4549; for MIC Coagulase Negative Staphylococcus (GC 4551): strain GC 4551; for MIC Coagulase Negative Staphylococcus (GC 6257): strain GC 6257
Outline: as §1

Streptococcus sp. = details: broth dilution, 18 hours at 35° C.; for MIC Streptococcus pneumoniae (ATCC 6301): strain ATCC 6301; for MIC Streptococcus pneumoniae (GC 1894): strain GC 1894; for MIC Streptococcus pyogenes (GC 4563): strain GC 4563; for MIC Streptococcus agalactiae (GC 4564): strain GC 4564; for MIC Streptococcus pneumoniae (GC 4565): strain GC 4565
Outline: as §1

Escherichia coli = details: broth dilution, 18 hours at 35° C.; for MIC Escherichia coli (ATCC 25922): strain ATCC 25922; for MIC Escherichia coli (GC 4559): strain GC 4559; for MIC Escherichia coli (GC 4560): strain GC 4560
Outline: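 Broth dilution MIC per NCCLS M7-A2 in Mueller-Hinton II medium, inoculum 5×10^5 CFU/mL, antibiotic range 64-0.06 μg/mL. MIC taken as lowest concentration inhibiting growth.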

SMILES | MIC Enterococcus faecalis (ATCC 29212) (Enterococcus sp.) [µg/mL] | MIC Enterococcus faecalis (GC 2242) (Enterococcus sp.) [µg/mL] | MIC Enterococcus faecium (GC 2243) (Enterococcus sp.) [µg/mL] | MIC Enterococcus faecalis (GC 2691) (Enterococcus sp.) [µg/mL] | MIC Enterococcus faecalis (GC 3059) (Enterococcus sp.) [µg/mL] | MIC Enterococcus faecalis (GC 4552) (Enterococcus sp.) [µg/mL] | MIC Enterococcus faecalis (GC 4553) (Enterococcus sp.) [µg/mL] | MIC Enterococcus faecalis (GC 4554) (Enterococcus sp.) [µg/mL] | MIC Enterococcus faecium (GC 4556) (Enterococcus sp.) [µg/mL] | MIC Enterococcus faecium (GC 4557) (Enterococcus sp.) [µg/mL] | MIC Enterococcus avium (GC 4558) (Enterococcus sp.) [µg/mL] | MIC Enterococcus faecalis (GC 6189) (Enterococcus sp.) [µg/mL] | MIC Staphylococcus aureus (ATCC 29213) (Staphylococcus sp.) [µg/mL] | MIC Staphylococcus aureus (GC 1131) (Staphylococcus sp.) [µg/mL] | MIC Staphylococcus aureus (GC 3051) (Staphylococcus sp.) [µg/mL] | MIC Staphylococcus aureus (GC 3053) (Staphylococcus sp.) [µg/mL] | MIC Staphylococcus aureus (GC 4541) (Staphylococcus sp.) [µg/mL] | MIC Staphylococcus aureus (GC 4542) (Staphylococcus sp.) [µg/mL] | MIC Staphylococcus aureus-SMITH (GC 4543) (Staphylococcus sp.) [µg/mL] | MIC Staphylococcus aureus (GC 4544) (Staphylococcus sp.) [µg/mL] | further results
CC(c1ccccc1)C1NC(=O)CNC(=O)C(CO)NC(=O)C(C(O)C2CNC(=N)N2C2OC(CO)C(O)C(O)C2O)NC(=O)C(C(O)C2CNC(=N)N2)NC(=O)C(Cc2ccc3oc(-c4cccc([N+](=O)[O-])c4)nc3c2)NC1=O (stereo not drawn) [Example 26, Cyclo[3-[2-(3-nitrophenyl)-1,3-benzoxazol-5-yl)alanyl-3-(2-iminoimidazolidin-4-yl)seryl-3-(3-hexopyranosyl-2-iminoimidazolidin-4-yl)serylserylglycyl-β-methylphenylalanyl]] | 32 (≈ 28.6 µM) | 64 (≈ 57.3 µM) | 32 (≈ 28.6 µM) | 32 (≈ 28.6 µM) | 64 (≈ 57.3 µM) | 64 (≈ 57.3 µM) | 32 (≈ 28.6 µM) | 64 (≈ 57.3 µM) | 64 (≈ 57.3 µM) | 8 (≈ 7.16 µM) | 32 (≈ 28.6 µM) | 32 (≈ 28.6 µM) | 32 (≈ 28.6 µM) | 16 (≈ 14.3 µM) | 16 (≈ 14.3 µM) | 16 (≈ 14.3 µM) | 32 (≈ 28.6 µM) | 16 (≈ 14.3 µM) | 16 (≈ 14.3 µM) | 16 (≈ 14.3 µM) | MIC Staphylococcus aureus (GC 4545) (Staphylococcus sp.): 32 µg/mL (≈ 28.6 µM); MIC Staphylococcus haemolyticus (GC 4546) (Staphylococcus sp.): 4 µg/mL (≈ 3.58 µM); MIC Coagulase Negative Staphylococcus (GC 4547) (Staphylococcus sp.): 8 µg/mL (≈ 7.16 µM); MIC Coagulase Negative Staphylococcus (GC 4548) (Staphylococcus sp.): 16 µg/mL (≈ 14.3 µM); MIC Coagulase Negative Staphylococcus (GC 4549) (Staphylococcus sp.): 4 µg/mL (≈ 3.58 µM); MIC Coagulase Negative Staphylococcus (GC 4551) (Staphylococcus sp.): 16 µg/mL (≈ 14.3 µM); MIC Coagulase Negative Staphylococcus (GC 6257) (Staphylococcus sp.): 4 µg/mL (≈ 3.58 µM); MIC Streptococcus pneumoniae (ATCC 6301) (Streptococcus sp.): 32 µg/mL (≈ 28.6 µM); MIC Streptococcus pneumoniae (GC 1894) (Streptococcus sp.): 16 µg/mL (≈ 14.3 µM); MIC Streptococcus pyogenes (GC 4563) (Streptococcus sp.): 8 µg/mL (≈ 7.16 µM); MIC Streptococcus agalactiae (GC 4564) (Streptococcus sp.): 16 µg/mL (≈ 14.3 µM); MIC Streptococcus pneumoniae (GC 4565) (Streptococcus sp.): 32 µg/mL (≈ 28.6 µM); MIC Escherichia coli (ATCC 25922) (Escherichia coli): 64 µg/mL (≈ 57.3 µM); MIC Escherichia coli (GC 4559) (Escherichia coli): 64 µg/mL (≈ 57.3 µM); MIC Escherichia coli (GC 4560) (Escherichia coli): 16 µg/mL (≈ 14.3 µM)
CC(c1ccccc1)C1NC(=O)CNC(=O)C(CO)NC(=O)C(C(O)C2CNC(=N)N2C2OC(CO)C(O)C(O)C2O)NC(=O)C(C(O)C2CNC(=N)N2)NC(=O)C(Cc2ccc3oc(-c4cccc(F)c4)nc3c2)NC1=O (stereo not drawn) [Example 30, Cyclo[3-[2-(3-fluorophenyl)-1,3-benzoxazol-5-yl]alanyl-3-(2-iminoimidazolidin-4-yl)seryl-3-(3-hexopyranosyl-2-iminoimidazolidin-4-yl)serylserylglycyl-β-methylphenylalanyl]] | 64 (≈ 58.7 µM) | 32 (≈ 29.4 µM) | 32 (≈ 29.4 µM) | 32 (≈ 29.4 µM) | 64 (≈ 58.7 µM) | 64 (≈ 58.7 µM) | 16 (≈ 14.7 µM) | 64 (≈ 58.7 µM) | 64 (≈ 58.7 µM) | 8 (≈ 7.34 µM) | 16 (≈ 14.7 µM) | 32 (≈ 29.4 µM) | 8 (≈ 7.34 µM) | 8 (≈ 7.34 µM) | 16 (≈ 14.7 µM) | 16 (≈ 14.7 µM) | 16 (≈ 14.7 µM) | 8 (≈ 7.34 µM) | 8 (≈ 7.34 µM) | 8 (≈ 7.34 µM) | MIC Staphylococcus aureus (GC 4545) (Staphylococcus sp.): 8 µg/mL (≈ 7.34 µM); MIC Staphylococcus haemolyticus (GC 4546) (Staphylococcus sp.): 4 µg/mL (≈ 3.67 µM); MIC Coagulase Negative Staphylococcus (GC 4547) (Staphylococcus sp.): 8 µg/mL (≈ 7.34 µM); MIC Coagulase Negative Staphylococcus (GC 4548) (Staphylococcus sp.): 4 µg/mL (≈ 3.67 µM); MIC Coagulase Negative Staphylococcus (GC 4549) (Staphylococcus sp.): 16 µg/mL (≈ 14.7 µM); MIC Coagulase Negative Staphylococcus (GC 4551) (Staphylococcus sp.): 8 µg/mL (≈ 7.34 µM); MIC Coagulase Negative Staphylococcus (GC 6257) (Staphylococcus sp.): 4 µg/mL (≈ 3.67 µM); MIC Streptococcus pneumoniae (ATCC 6301) (Streptococcus sp.): 8 µg/mL (≈ 7.34 µM); MIC Streptococcus pneumoniae (GC 1894) (Streptococcus sp.): 16 µg/mL (≈ 14.7 µM); MIC Streptococcus pyogenes (GC 4563) (Streptococcus sp.): 4 µg/mL (≈ 3.67 µM); MIC Streptococcus agalactiae (GC 4564) (Streptococcus sp.): 8 µg/mL (≈ 7.34 µM); MIC Streptococcus pneumoniae (GC 4565) (Streptococcus sp.): 16 µg/mL (≈ 14.7 µM); MIC Escherichia coli (ATCC 25922) (Escherichia coli): 32 µg/mL (≈ 29.4 µM); MIC Escherichia coli (GC 4559) (Escherichia coli): 32 µg/mL (≈ 29.4 µM); MIC Escherichia coli (GC 4560) (Escherichia coli): 8 µg/mL (≈ 7.34 µM)
CC(c1ccccc1)C1NC(=O)CNC(=O)C(CO)NC(=O)C(C(O)C2CNC(=N)N2C2OC(CO)C(O)C(O)C2O)NC(=O)C(C(O)C2CNC(=N)N2)NC(=O)C(Cc2ccc3oc(-c4ccc(Br)cc4)nc3c2)NC1=O (stereo not drawn) [Example 27, Cyclo[3-[2-(4-bromophenyl)-1,3-benzoxazol-5-yl]alanyl-3-(2-iminoimidazolidin-4-yl)seryl-3-(3-hexopyranosyl-2-iminoimidazolidin-4-yl)serylserylglycyl-β-methylphenylalanyl]] | 32 (≈ 27.8 µM) | 32 (≈ 27.8 µM) | 32 (≈ 27.8 µM) | 32 (≈ 27.8 µM) | 32 (≈ 27.8 µM) | 64 (≈ 55.6 µM) | 16 (≈ 13.9 µM) | 32 (≈ 27.8 µM) | 64 (≈ 55.6 µM) | 8 (≈ 6.95 µM) | 16 (≈ 13.9 µM) | 32 (≈ 27.8 µM) | 8 (≈ 6.95 µM) | 16 (≈ 13.9 µM) | 16 (≈ 13.9 µM) | 8 (≈ 6.95 µM) | 16 (≈ 13.9 µM) | 8 (≈ 6.95 µM) | 8 (≈ 6.95 µM) | 8 (≈ 6.95 µM) | MIC Staphylococcus aureus (GC 4545) (Staphylococcus sp.): 8 µg/mL (≈ 6.95 µM); MIC Staphylococcus haemolyticus (GC 4546) (Staphylococcus sp.): 4 µg/mL (≈ 3.48 µM); MIC Coagulase Negative Staphylococcus (GC 4547) (Staphylococcus sp.): 8 µg/mL (≈ 6.95 µM); MIC Coagulase Negative Staphylococcus (GC 4548) (Staphylococcus sp.): 8 µg/mL (≈ 6.95 µM); MIC Coagulase Negative Staphylococcus (GC 4549) (Staphylococcus sp.): 8 µg/mL (≈ 6.95 µM); MIC Coagulase Negative Staphylococcus (GC 4551) (Staphylococcus sp.): 8 µg/mL (≈ 6.95 µM); MIC Coagulase Negative Staphylococcus (GC 6257) (Staphylococcus sp.): 4 µg/mL (≈ 3.48 µM); MIC Streptococcus pneumoniae (ATCC 6301) (Streptococcus sp.): 16 µg/mL (≈ 13.9 µM); MIC Streptococcus pneumoniae (GC 1894) (Streptococcus sp.): 32 µg/mL (≈ 27.8 µM); MIC Streptococcus pyogenes (GC 4563) (Streptococcus sp.): 8 µg/mL (≈ 6.95 µM); MIC Streptococcus agalactiae (GC 4564) (Streptococcus sp.): 32 µg/mL (≈ 27.8 µM); MIC Streptococcus pneumoniae (GC 4565) (Streptococcus sp.): 16 µg/mL (≈ 13.9 µM); MIC Escherichia coli (ATCC 25922) (Escherichia coli): 32 µg/mL (≈ 27.8 µM); MIC Escherichia coli (GC 4559) (Escherichia coli): 32 µg/mL (≈ 27.8 µM); MIC Escherichia coli (GC 4560) (Escherichia coli): 8 µg/mL (≈ 6.95 µM)
